The target of one data set is T1, HIV-integrase (Human immunodeficiency virus type 1 group M subtype B, UniProt P04585).
T1 construct: 0.26 ng of recombinant integrase was incubated with the beads
In words: HIV-integrase inhibition activity (SPA bead strand-transfer assay). It is filed as biochemical. To be noted: 50 μM compound; recombinant integrase. As for the experimental part:
For each reaction, 5 pmole of biotin labled substrate DNA was bound to 100 ug of Streptavidin coated PVT SPA beads (Amersham Pharmacia Biotech). 0.26 ng of recombinant integrase was incubated with the beads for 90 min at 37° C. Unbound enzyme was removed by washing the complex followed by addition of inhibitors and 0.1 fmol of P33 labeled target DNA. Reaction was stopped by adding EDTA to a final concentration of 10 mM. Samples were counted in TopCountNXT (Packard) and the CPM was used as a measure of integration. Reaction condition was as described in A. Engelman and R. Craigie, J. Virol. 69, 5908-5911 (1995). The sequences of substrate and target DNA were described in Nucleic Acid Research 22, 1121-1122 (1994). Compounds of this invention tested in this assay have IC50's of approximately 0.01 to 50 μM

For data set [1], the system named is single cycle, recombinant HIV virus expressing Renella luciferase. In words: Inhibition of HIV replication (single cycle recombinant virus, luciferase readout). As to conditions: Human immunodeficiency virus 1, 120 h, read-out: % Inhibition @ 1.6 uM. The format is cell-based. As for the experimental part:
Cell culture assays were preformed using a single cycle, recombinant HIV virus expressing Renella luciferase. Anti-viral activity was evaluated by measuring the production of luciferase in the infected cells 5 days post-infection. Susceptibility of the virus to compounds was determined by incubation in the presence of the serially-diluted compound. The 50% effective concentration (EC50) was calculated by using the exponential form of the median effect equation where (Fa)=1/[1+(ED50/drug conc.)^m]. Compounds of this invention tested in this assay have EC50's of approximately 0.02 to 50 μM.

Structures are written as SMILES.

Regarding `CON(Cc1ccc(Cl)c(Cl)c1)C(=O)/C=C(\O)C(=O)O` [Compound 4, 3-[(3,4-Dichloro-benzyl)-methoxy-carbamoyl]-2-hydroxy-acrylic acid], the inhibition – broadly, the percentage by which the read-out fell short of the control – at 50 µM on HIV-integrase came to 99.9%. In addition, the inhibition at 1.6 µM in data set [1] was 90%.
As for `CON(Cc1ccc(Cl)c(Cl)c1)C(=O)/C=C1\OC(C)(C)OC1=O` [Compound 4-B, N-(3,4-Dichloro-benzyl)-2-(2,2-dimethyl-5-oxo-[1,3]dioxolan-4-ylidene)-N-methoxy-acetamide], the melting point (commonly the temperature of the solid-liquid transition) is 119 to 120 °C. Moreover, the inhibition at 1.6 µM in data set [1] was found to be 87%.
`CON(Cc1ccc(F)c(Cl)c1)C(=O)/C=C1\OC(C)(C)OC1=O` [Compound 5-B, N-(3-Chloro-4-fluoro-benzyl)-2-(2,2-dimethyl-5-oxo-[1,3]dioxolan-4-ylidene)-N-methoxy-acetamide]: the melting point lay within 110 to 111 °C. The inhibition at 1.6 µM in data set [1] was determined as 94%.
The compound `CON(Cc1ccc(F)c(Br)c1)C(=O)/C=C(\O)C(=O)O` [Compound 14, 3-[(3-Bromo-4-fluoro-benzyl)-methoxy-carbamoyl]-2-hydroxy-acrylic acid] gave a melting point of 140 to 141 °C. Besides, the inhibition at 50 µM at HIV-integrase amounted to 99.9%.
With `COc1ccc(CN(OC)C(=O)/C=C(\O)C(=O)O)cc1` [Compound 16, 2-Hydroxy-3-[methoxy-(4-methoxy-benzyl)-carbamoyl]-acrylic acid], the melting point was 83 to 86 °C. In addition, at HIV-integrase, the inhibition at 50 µM came to 99%.
Taken in the same sequence, the figures for `CON(Cc1ccc(F)cc1F)C(=O)/C=C(\O)C(=O)O` [Compound 17, 3-[(2,4-Difluoro-benzyl)-methoxy-carbamoyl]-2-hydroxy-acrylic acid] were 131 to 132 °C and 99.9%.
Taken in the same sequence, the figures for `COC(=O)c1ccc(CN(OC)C(=O)C=C(O)C(=O)O)cc1` [Compound 18, 4-{[(3-Carboxy-3-hydroxy-acryloyl)-methoxy-amino]-methyl}-benzoic acid methyl ester] were 110 to 111 °C and 96%.
Taken in the same sequence, the figures for `CON(Cc1ccc(F)c(C#N)c1)C(=O)/C=C(\O)C(=O)O` [Compound 19, 3-[(3-Cyano-4-fluoro-benzyl)-methoxy-carbamoyl]-2-hydroxy-acrylic acid] were 144 to 151 °C (dec.) and 99.9%.
Regarding `CC(C)(C)OC(=O)CON(Cc1ccc(F)cc1)C(=O)/C=C(\O)C(=O)O` [Compound 20, 3-[tert-Butoxycarbonylmethoxy-(4-fluoro-benzyl)-carbamoyl]-2-hydroxy-acrylic acid], the melting point was 73 °C (dec.). For the same compound, the inhibition at 50 µM at HIV-integrase came to 99.9%.
Taken in the same sequence, the figures for `CON(Cc1ccc(C#N)cc1)C(=O)/C=C(\O)C(=O)O` [Compound 21, 3-[(4-Cyano-benzyl)-methoxy-carbamoyl]-2-hydroxy-acrylic acid] were 135 to 137 °C (dec.) and 99.9%.
The compound `CN(C)C(=O)CON(Cc1ccc(F)cc1)C(=O)/C=C(\O)C(=O)O` [Compound 22, 3-[Dimethylcarbamoylmethoxy-(4-fluoro-benzyl)-carbamoyl]-2-hydroxy-acrylic acid] yielded a melting point of 118 to 120 °C. In addition, the inhibition at 50 µM on HIV-integrase is 99.9%.
For `CON(Cc1ccc(NC(C)=O)cc1)C(=O)/C=C(\O)C(=O)O` [Compound 23, 3-[(4-Acetylamino-benzyl)-methoxy-carbamoyl]-2-hydroxy-acrylic acid], the melting point is 155 °C (dec.). For the same compound, the inhibition at 50 µM at HIV-integrase was found to be 65%.
As for `O=C(O)CON(Cc1ccc(F)cc1)C(=O)/C=C(\O)C(=O)O` [Compound 24, 3-[Carboxymethoxy-(4-fluoro-benzyl)-carbamoyl]-2-hydroxy-acrylic acid], the melting point fell in the range of 135 to 138 °C. In addition, the inhibition at 50 µM on HIV-integrase stood at 99.9%.
Consider `CON(Cc1ccccc1OC(C)C)C(=O)/C=C(\O)C(=O)O` [Compound 31, 2-Hydroxy-3-[(2-isopropoxy-benzyl)-methoxy-carbamoyl]-acrylic acid], for which the inhibition at 1.6 µM in data set [1] is 47%.
